Measurements from US20250186468A1, “METHOD FOR TREATING PATIENT WITH BRCA-MUTATED CANCER” (ASCENTAWITS PHARMACEUTICALS, LTD., priority 2022, published 2025).

Tests used:
[1] = test system: Capan-1 (human-derived pancreatic cancer cell line, BRCA2 pathogenic mutation); assay: Cell proliferation assay (CTG), in vitro cytotoxicity; type: cell-based; conditions: Homo sapiens, Capan-1 cells, 72 hours
From the text: (§1) The following cell lines were used as research objects in this experiment, which were BRCA pathogenic mutant cell line Capan-1 (human-derived pancreatic cancer cell line, wherein the BRCA2 pathogenic mutation site was p.S1982RfsTer22), BRCA non-pathogenic mutant cell line PLC/PRF/5 (human-derived liver cancer cell line) and HT29 (human-derived colon cancer cell line), respectively.
(§2) Cell proliferation assay was used to detect the sensitivity of various cells to AST-3424, i.e., IC50 value. Unless otherwise specified, IC50 value was measured by the following experimental method:
(§3) a) Different cells were cultured in different media with fetal bovine serum (Table 2), added with 1% double antibody, and placed at 37° C.; and 5% CO2 for culturing.
(§4) a) The cells were routinely cultured until the cell saturation was 80%-90%, and when the required quantity was reached, the cells were collected.
(§5) b) The cells were resuspended with the corresponding medium and cell counts were performed to prepare a cell suspension with appropriate density.
(§6) d) Cells were incubated overnight at 37° C., 5% CO2 in an incubator.
(§7) a) The compound was prepared according to the experimental requirements.
(§8) b) Blank control well was cells added with 0.5% DMSO as high read control well.
(§9) c) The well only with medium and without cell was used as low read control well.
(§10) a) After 24 hours of cell plating, the compound was used alone and each well was supplied with 99 μL of growth medium, then added with 1 μL of 200X compound, shaken gently to ensure even mixing, and then placed at 37° C., 5% CO2 in an incubator.
(§11) b) The cell plate was placed in the incubator for 72 hours.
(§12) a) The cell plate to be tested was placed at room temperature to equilibrium for 30 minutes, and 100 μL of medium was discarded per well.
(§13) b) 100 μL of CTG reagent (CelltiterGlo kit) was added to each well, placed at a fast shaker to shake for 2 minutes, and placed at room temperature away from light for 30 minutes.
(§14) c) The chemiluminescence signal value was read with the Envision instrument.
(§15) IC50 was calculated with GraphPad Prism 8 software, and the IC50 (half maximal inhibitory concentration) of the compound was obtained by using the following nonlinear fitting formula:
(§16) [formula] • X: Compound concentration log value, Y: inhibition rate (% inhibition)

[2] = test system: HT29 (human-derived colon cancer cell line, BRCA non-pathogenic mutant); assay: as above; type: cell-based
From the text: as §1, §2, §3, §4, §5, §6, §7, §8, §9, §10, §11, §12, §13, §14, §15, §16

[3] = test system: PLC/PRF/5 (human-derived liver cancer cell line, BRCA non-pathogenic mutant); assay: as above; type: cell-based
From the text: as §1, §2, §3, §4, §5, §6, §7, §8, §9, §10, §11, §12, §13, §14, §15, §16

[4] = test system: HuPrime® gastric cancer GA6201 model (BRCA2 pathogenic mutant)
From the text: (§17) If not specified, the relevant parameters in the following chart were defined as follows: • 1. Data were expressed as “mean±standard error”, i.e., x ±S; • 2. T/C % =TRTV/CRTV×100% or T/C % =TTV/CTV×100% (TRTV: mean RTV of treatment group; CRTV: mean RTV of vehicle control group; RTV=Vt/V0, V0 was the tumor volume of the animal at the time of grouping, Vt was the tumor volume of the animal after treatment, the same below); TGI % =(1-T/C)×100% (T and C were the mean relative tumor volumes (RTV) of the treatment and control groups at a specific time point, respectively). • 3. CR ratio (complete clearance) represented the ratio of the number of animals with complete tumor clearance to the number of animals in the group corresponding to the drug dose group. • 4. P Value, i.e., the statistical P measurement value. P<0.05 was defined as a significant difference.
BALB/c nude mice were subcutaneously inoculated with HuPrime® model GA6201 tumor blocks to establish the subcutaneous transplantation tumor model of human gastric cancer. The test was divided into test drug Ifosfamide 60 mg/kg group, test drug Compound S 2.5 mg/kg group and normal saline (pH 7.0-7.6) vehicle control group, with 5 mice in each group. […] Ifosfamide 60 mg/kg group was administered by intraperitoneal injection, for five consecutive days and rested for two days in each week, for a total of two weeks, and observed for five weeks.

[5] = test system: HuPrime® lung cancer LU5173 model (non-BRCA pathogenic mutant)
From the text: as §17
NOD/SCID female mice were subcutaneously inoculated with the HuPrime® model LU5173 tumor blocks to establish a subcutaneous transplantation tumor model of human lung cancer. The test was divided into positive control drug Ifosfamide 60 mg/kg group, test drug Compound S 4 mg/kg group and 7.5% absolute ethanol+7.5% polyoxyethylene (35) castor oil+85% glucose injection D5W vehicle control group, etc., with 6 mice in each group. Among them, 7.5% absolute ethanol+7.5% polyoxyethylene (35) castor oil+85% glucose injection D5W vehicle control group and test drug Compound S group were administered through tail vein injection, once a week, for three consecutive weeks. Positive control drug Ifosfamide 60 mg/kg group was administered by intraperitoneal injection, once a day, for 5 consecutive days, and rested for two days, for two consecutive weeks.

[6] = Compound S 2.5 mg/kg tail vein once a week, three weeks, Day 38
[7] = Compound S 4 mg/kg i.v. once a week, three weeks, Day 32 after the first administration

Question: For `O=[N+]([O-])c1ccc(C(OP(=O)(N2CC2)N2CC2)C(F)(F)F)cc1Oc1ccc(-c2ccc(F)cc2)c(F)c1` (stereo not drawn) [Compound S], which IC50 [1] is on record?
Answer: 403 nM

Question: And the IC50 ([2]; Homo sapiens, HT-29, HT29 cells, 72 hours, CTG)?
Answer: 4880 nM

Question: And the “Fold Change” value ([2]; IC50 in HT29 relative to IC50 in Capan-1)?
Answer: 12

Question: What about the IC50 ([3]; Homo sapiens, PLC/PRF/5 cells, 72 hours, CTG) of the same molecule?
Answer: 2020 nM

Question: What about the “Fold Change” value ([3]; IC50 in PLC/PRF/5 relative to IC50 in Capan-1) of the same molecule?
Answer: 5

Question: And the “Relative tumor volume (x ± S)” value [4, 6]?
Answer: 0.29 ± 0.08

Question: And the T/C [4, 6]?
Answer: 3.15%

Question: What about the TGI [4, 6] of the same molecule?
Answer: 96.85%

Question: And the “Tumor volume (x ± S)” value [4, 6]?
Answer: 28.69 ± 8.2 mm^3

Question: And the “body weight / tolerability” value ([4]; Compound S 2.5 mg/kg treatment group)?
Answer: no body weight loss

Question: What about the “Relative tumor volume (x ± S)” value [5, 7] of the same molecule?
Answer: 10.22 ± 1.11 mm^3

Question: What about the T/C [5, 7] of the same molecule?
Answer: 47.42%

Question: What about the TGI [5, 7] of the same molecule?
Answer: 52.58%

Question: And the “Tumor volume (x ± S)” value [5, 7]?
Answer: 1107.01 ± 162.08 mm^3

Question: What about the “body weight / tolerability” value ([5]; Compound S 4 mg/kg treatment group) of the same molecule?
Answer: no any obvious body weight loss
